Consider 20 compounds from patent publication US20230114241A1, “METHODS OF TREATING EPILEPSY USING THE SAME” (Trevena, Inc., priority 2019, published 2023).

SMILES strings stand for the structures.

Series [1] relates to peripheral blood lymphocytes. Description: Lymphopenia: peripheral blood lymphocyte counts, acute and chronic s.c. dosing. It is filed as in vivo. To be noted: c57bl/6 mice; for Lymphopenia effect (change in peripheral blood lymphocytes): vs vehicle. The method, then: Compounds were tested for changes in peripheral blood lymphocytes in C57bl/6 mice. In acute studies, animals (n=5/group) were dosed subcutaneously with test compound at a dose of 3 mg/kg. Animals were sacrificed at specific time points and […] of whole blood was collected in EDTA (K2) Eppendorf tubes. Blood was stored on ice and shipped immediately overnight delivery to Charles River Laboratories for analysis. CRL ran samples through their WBC/differential panel on an Advia 120 instrument. We received peripheral lymphocyte counts (10^3 cells/μl) for each blood sample. Treatment group means were compared to a vehicle treatment group for statistical significance. In chronic studies, animals (n=6-8/group) were dosed subcutaneously for three to seven days with test compound at doses that were at least 5-fold higher than the efficacious dose in pharmacology/behavioral assays. On the last day, animals were sacrificed 45 minutes to 6 hrs after the final dose. Whole blood was collected and analyzed as described for acute studies. […]

The target in series [2] is T1, human sphingosine-1-phosphate receptor 1 (S1P1) (Homo sapiens, UniProt P21453). Put plainly: Inhibition of cAMP production (HTRF cAMP HiRange), S1P1 CHO-K1 cells. It is filed as cell-based. The following applies: for EC50: read-out: hS1P1 CAMP pEC50 (converted); for Emax: CHO-K1, efficacy normalized to maximum efficacy of fingolimod, read-out: hS1P1 CAMP SPAN. Put shortly: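 CHO-K1 cells co-expressing human S1P1 (C-terminal ProLink tag) and EA-β-arrestin2, plated overnight; after 30 min compound incubation at 37 °C, intracellular cAMP measured by HTRF TR-FRET following 1 h at room temperature. Values normalized to fingolimod.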
For orientation: Cyclic AMP is a second messenger, typically raised through Gs and lowered through Gi signalling.
Target sequence in this assay (P21453 whole entry): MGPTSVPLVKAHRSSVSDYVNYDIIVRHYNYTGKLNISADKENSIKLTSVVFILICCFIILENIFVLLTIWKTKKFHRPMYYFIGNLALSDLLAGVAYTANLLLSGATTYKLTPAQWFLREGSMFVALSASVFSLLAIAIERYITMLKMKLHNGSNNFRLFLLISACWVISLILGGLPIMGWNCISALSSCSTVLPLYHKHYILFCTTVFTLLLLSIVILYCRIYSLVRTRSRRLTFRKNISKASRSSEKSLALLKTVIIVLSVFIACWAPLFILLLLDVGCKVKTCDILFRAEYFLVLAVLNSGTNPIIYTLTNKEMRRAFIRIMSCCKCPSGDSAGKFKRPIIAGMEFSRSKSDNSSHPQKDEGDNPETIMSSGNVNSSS

Series [3] addresses T1, human sphingosine-1-phosphate receptor 1 (S1P1). Put plainly: β-Arrestin2 recruitment assay (PathHunter), S1P1 CHO-K1 cells. It is filed as cell-based. To be noted: for Emax: efficacy normalized to maximum efficacy of fingolimod, read-out: hS1P1 B-arrestin2 SPAN; for EC50: β-arrestin2 recruitment, read-out: hS1P1 B-arrestin2 pEC50 (converted). Put shortly:
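CHO-K1 cells co-expressing EA-β-arrestin2 and ProLink-tagged human S1P1 plated overnight, then stimulated 60 min at 37 °C. Enzyme-fragment complementation (β-galactosidase) detected after 1 h at room temperature by luminescence; values normalized to fingolimod.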
Target sequence in this assay (P21453 whole entry): as above
Target sequence in this assay (P32121 whole entry partner): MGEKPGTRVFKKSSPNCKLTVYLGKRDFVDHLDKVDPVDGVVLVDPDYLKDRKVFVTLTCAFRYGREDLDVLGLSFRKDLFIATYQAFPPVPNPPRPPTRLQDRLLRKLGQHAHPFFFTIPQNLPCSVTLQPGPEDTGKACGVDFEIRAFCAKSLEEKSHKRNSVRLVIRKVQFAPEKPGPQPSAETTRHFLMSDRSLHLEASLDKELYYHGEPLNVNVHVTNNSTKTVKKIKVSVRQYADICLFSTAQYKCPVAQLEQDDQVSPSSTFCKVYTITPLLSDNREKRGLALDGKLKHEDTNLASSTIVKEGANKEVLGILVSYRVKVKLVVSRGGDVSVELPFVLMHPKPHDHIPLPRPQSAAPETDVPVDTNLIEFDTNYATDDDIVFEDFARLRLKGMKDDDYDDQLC
(In general: Activated receptors often draw arrestin, which recruitment assays turn into a signal.)

The mark [4] stands for this setting: inhibition of cAMP production, potency.
[5] abbreviates: CHO-K1, β-arrestin2 recruitment.
[6] abbreviates: inhibition of cAMP production, S1P1.

For `COc1cc(NC(C)=O)ccc1-c1noc(-c2ccc(NC(C)C)c(C#N)c2)n1` [Compound 731, N-[4-(5-{3-cyano-4-[(propan-2-yl)amino]phenyl}-1,2,4-oxadiazol-3-yl)-3-methoxyphenyl]acetamide], in series [1] (6 mg/kg sc, 7 days), the “Lymphopenia effect (change in peripheral blood lymphocytes)” value is on record as −78% stat sig: 6 mg/kg, 7 days.

`Cc1ccccc1-c1noc(-c2ccc3c(c2)nnn3C(C)C)n1` [Compound 293, 5-[3-(2-methylphenyl)-1,2,4-oxadiazol-5-yl]-1-(propan-2-yl)-1H-1,2,3-benzotriazole]: in series [2] (setting [4]), the EC50 was less than 316 nM. Besides, the “Lymphopenia effect (peripheral blood lymphocytes)” value in series [1] (6 mg/kg sc, 7 days) was “no change: 6 mg/kg, 7 days”.

In the case of `COc1ccc(-c2noc(-c3ccc4c(c3)nnn4C(C)C)n2)c(C)c1` [Compound 55, 5-(1-isopropyl-1H-benzo[d][1,2,3]triazol-5-yl)-3-(4-methoxy-2-methylphenyl)-1,2,4-oxadiazole], the Emax in series [3] (setting [5]) and in series [2] (inhibition of cAMP production) was more than 75% in each case. Moreover, the EC50 in series [3] (potency) was less than 10000 nM; in series [2] (setting [4]), less than 316 nM. Besides, the “Lymphopenia effect (peripheral blood lymphocytes)” value in series [1] (6 mg/kg sc, 7 days) is “no change: 6 mg/kg, 7 days”.

`CC(C)Nc1ccc(-c2nnc(-c3ccc4[nH]cnc4c3)o2)cc1C#N` [Compound 356, 5-[5-(1H-1,3-benzodiazol-5-yl)-1,3,4-oxadiazol-2-yl]-2-[(propan-2-yl)amino]benzonitrile]: in series [2] (setting [4]), the EC50 was less than 316 nM. Besides, the “Lymphopenia effect (peripheral blood lymphocytes)” value in series [1] (6 mg/kg sc, 7 days) is “no change: 6 mg/kg, 7 days”.

On to `Cc1ccsc1-c1noc(-c2ccc3c(c2)nnn3C(C)C)n1` [Compound 169, 5-[3-(3-methyl-thiophen-2-yl)-1,2,4-oxadiazol-5-yl]-1-(propan-2-yl)-1H-1,2,3-benzotriazole], for which the Emax in series [3] (setting [5]) and in series [2] (inhibition of cAMP production) was more than 75% throughout. The results for the EC50 in series [3] (potency) and in series [2] (setting [4]) were less than 10000 nM and less than 316 nM, respectively. In addition, the “Lymphopenia effect (peripheral blood lymphocytes)” value in series [1] (6 mg/kg sc, 7 days) is reported as “no change: 6 mg/kg, 7 days”.

Take `Cc1ccccc1-c1noc(-c2ccc3c(c2)nnn3CC(C)C)n1` [Compound 96, 5-[3-(2-methylphenyl)-1,2,4-oxadiazol-5-yl]-1-(2-methylpropyl)-1H-1,2,3-benzotriazole]: the EC50 in series [2] (setting [4]) is less than 316 nM. The “Lymphopenia effect (peripheral blood lymphocytes)” value in series [1] (6 mg/kg sc, 7 days) is given as “no change: 6 mg/kg, 7 days”.

In the case of `Cc1cnccc1-c1nc(-c2ccc3c(c2)nnn3C(C)C)no1` [Compound 8, 3-(1-isopropyl-1H-benzo[d][1,2,3]triazol-5-yl)-5-(3-methylpyridin-4-yl)-1,2,4-oxadiazole], in series [2] (setting [4]), the EC50 is more than 316 nM. Moreover, the “Lymphopenia effect (peripheral blood lymphocytes)” value in series [1] (6 mg/kg sc, 7 days) is “no change: 6 mg/kg, 7 days”.

As for `CN1C(=O)CCc2cc(-c3nc(-c4cccnc4)no3)ccc21` [Compound 384, 1-methyl-6-[3-(pyridin-3-yl)-1,2,4-oxadiazol-5-yl]-1,2,3,4-tetrahydroquinolin-2-one], the Emax is less than 75% in series [3] (CHO-K1) and more than 75% in series [2]. The EC50 in series [3] (S1P1) is more than 10000 nM; in series [2] (setting [6]), more than 316 nM. In series [1] (3 mg/kg sc, 45 min and 2 hr), the “Lymphopenia effect (peripheral blood lymphocytes)” value is “no change: 3 mg/kg; 45 min and 2 hr”.

In the case of `CC(F)(F)CNc1ccc(-c2nnc(-c3ccc4[nH]ncc4c3)o2)cc1C#N` [Compound 355, 2-[(2,2-difluoro-propyl)amino]-5-[5-(1H-indazol-5-yl)-1,3,4-oxadiazol-2-yl]benzonitrile], the Emax in series [3] (setting [5]) and in series [2] (inhibition of cAMP production) was more than 75% throughout. Besides, in series [2] (setting [4]), the EC50 is less than 316 nM. Besides, the “Lymphopenia effect (peripheral blood lymphocytes)” value in series [1] (6 mg/kg sc, 7 days) is “no change: 6 mg/kg, 7 days”.

With `Cc1cnccc1-c1nc(-c2ccc3c(ccn3C(C)C)c2)no1` [Compound 142, 3-(1-isopropyl-1H-indol-5-yl)-5-(3-methylpyridin-4-yl)-1,2,4-oxadiazole], the EC50 in series [2] (setting [4]) was less than 316 nM. For the same compound, the “Lymphopenia effect (peripheral blood lymphocytes)” value in series [1] (6 mg/kg sc, 7 days) is listed as “no change: 6 mg/kg, 7 days”.

In the case of `CCC1(CC)CC(=O)c2cc(-c3nc(-c4cccnc4OC)no3)ccc2O1` [Compound 147, 2,2-diethyl-6-(3-(2-methoxypyridin-3-yl)-1,2,4-oxadiazol-5-yl)chroman-4-one], the EC50 in series [2] (setting [4]) was less than 316 nM. In addition, the “Lymphopenia effect (peripheral blood lymphocytes)” value in series [1] (6 mg/kg sc, 7 days) is on record as “no change: 6 mg/kg, 7 days”.

With `CCC1(CC)CC(=O)c2cc(-c3nc(-c4ccc(NC(C)=O)cc4OC)no3)ccc2O1` [Compound 531, N-{4-[5-(2,2-diethyl-4-oxo-3,4-dihydro-2H-1-benzopyran-6-yl)-1,2,4-oxadiazol-3-yl]-3-methoxyphenyl} acetamide], the Emax in series [3] (CHO-K1) and in series [2] was more than 75% in each case. Further, the EC50 in series [3] (S1P1) was less than 10000 nM; in series [2] (setting [6]) it was less than 316 nM. In series [1] (6 mg/kg sc, 7 days), the “Lymphopenia effect (peripheral blood lymphocytes)” value is given as “no change: 6 mg/kg, 7 days”.

For the compound `Cc1cnc(-c2nc(-c3ccc4c(c3)nnn4C(C)C)no2)cn1` [Compound 234, 3-(1-isopropyl-1H-benzo[d][1,2,3]triazol-5-yl)-5-(5-methyl-pyrazin-2-yl)-1,2,4-oxadiazole], the Emax in series [3] (setting [5]) and in series [2] (inhibition of cAMP production) was less than 75% each time. Further, the results for the EC50 in series [3] (potency) and in series [2] (setting [4]) were more than 10000 nM and more than 316 nM, respectively. Also, in series [1] (6 mg/kg sc, 7 days), the “Lymphopenia effect (peripheral blood lymphocytes)” value was “no change: 6 mg/kg, 7 days”.

As to `CC(C)Oc1ccc(-c2nc(-c3ccc4c(c3)nnn4C(C)C)no2)cc1C#N` [Compound 22, 2-isopropoxy-5-(3-(1-isopropyl-1H-benzo[d] [1,2,3]triazol-5-yl)-1,2,4-oxadiazol-5-yl)benzonitrile], the “Lymphopenia effect (peripheral blood lymphocytes)” value in series [1] (3 mg/kg sc, 7 days) is “no change: 3 mg/kg, 7 days”.

With `CCC1(CC)CC(=O)c2cc(-c3nc(-c4cccnc4)no3)ccc2O1` [Compound 103, 2,2-diethyl-6-[3-(pyridin-3-yl)-1,2,4-oxadiazol-5-yl]-3,4-dihydro-2H-1-benzopyran-4-one], the EC50 in series [2] (setting [4]) is less than 316 nM. The “Lymphopenia effect (peripheral blood lymphocytes)” value in series [1] (6 mg/kg sc, 7 days) was “no change: 6 mg/kg, 7 days”.

For `CC(C)Nc1ccc(-c2ncc(-c3cccnc3)cn2)cc1C#N` [Compound 737, 2-(isopropylamino)-5-(5-(pyridin-3-yl)pyrimidin-2-yl)benzonitrile], the “Lymphopenia effect (change in peripheral blood lymphocytes)” value in series [1] (6 mg/kg sc, 7 days) is −40% not stat sig: 6 mg/kg, 7 days.

For the compound `COc1cccc(-c2noc(-c3ccc4c(c3)nnn4C(C)C)n2)n1` [Compound 19, 5-[3-(6-methoxypyridin-2-yl)-1,2,4-oxadiazol-5-yl]-1-(propan-2-yl)-1H-1,2,3-benzotriazole], the Emax in series [3] (setting [5]) and in series [2] (inhibition of cAMP production) was less than 75% throughout. In addition, the EC50 was less than 10000 nM in series [3] (potency) and more than 316 nM in series [2] (setting [4]). Moreover, the “Lymphopenia effect (peripheral blood lymphocytes)” value in series [1] (6 mg/kg sc, 7 days) is recorded as “no change: 6 mg/kg, 7 days”.

Consider `Cc1ccccc1-c1noc(-c2ccc3c(c2)nnn3C(C)(C)C)n1` [Compound 59, 1-tert-butyl-5-[3-(2-methylphenyl)-1,2,4-oxadiazol-5-yl]-1H-1,2,3-benzotriazole], for which the Emax in series [3] (setting [5]) and in series [2] (inhibition of cAMP production) was more than 75% each time. For the same compound, the EC50 was less than 10000 nM in series [3] (potency) and less than 316 nM in series [2] (setting [4]). The “Lymphopenia effect (peripheral blood lymphocytes)” value in series [1] (6 mg/kg sc, 7 days) was “no change: 6 mg/kg, 7 days”.

`CC(F)(F)CNc1ccc(-c2nnc(-c3ccc4[nH]cnc4c3)o2)cc1C#N` [Compound 520, 5-[5-(1H-1,3-benzodiazol-5-yl)-1,3,4-oxadiazol-2-yl]-2-[(2,2-difluoro-propyl)amino]benzonitrile]: the EC50 in series [2] (setting [6]) was less than 316 nM. In addition, the “Lymphopenia effect (peripheral blood lymphocytes)” value in series [1] (6 mg/kg sc, 7 days) is on record as “no change: 6 mg/kg, 7 days”.

With `CC(C)n1nnc2cc(-c3nc(-c4ccncc4C(F)(F)F)no3)ccc21` [Compound 455, 1-(propan-2-yl)-5-{3-[3-(trifluoromethyl)pyridin-4-yl]-1,2,4-oxadiazol-5-yl}-1H-1,2,3-benzotriazole], the EC50 in series [2] (setting [6]) was less than 316 nM. For the same compound, the “Lymphopenia effect (peripheral blood lymphocytes)” value in series [1] (6 mg/kg sc, 7 days) is “no change: 6 mg/kg, 7 days”.
